From patent publication US11485728B2, “Small molecules for the treatment of autoimmune diseases and cancer” (Athos Therapeutics, Inc., priority 2020, dated 2022) come the findings set out here.

For series [1], the system named is HCT-116. Description: HCT-116 cell viability (Real-Time-Glo). The format is cell-based. The note with it: Homo sapiens, 72 hr, read-out: IC50, Cell line: HCT-116. How it is done: (§1) To determine the plating density for cell viability assays, for each cell line, cells were counted and diluted to final densities of 2.5, 5, 10 and 20 thousand per 100 μl of their respective growth media per well in 96 well plates. A Promega Real-Time-Glo cell viability kit was used to determine the optimal concentration for cell plating so that each cell line would be within the linear part of its growth curve after 72 hrs in culture. […] Test compounds were then added at different concentrations for the creation of six-point curve and cell density was determined using the Promega Real-Time-Glo cell viability kit after 24, 48, and 72 hrs in culture.

Series [2] concerns HT-29 colorectal cancer cells. Kind of series: HT-29 cell viability (Real-Time-Glo). The format is cell-based. Particulars: Homo sapiens, HT-29; 72 hr; read-out: IC50, Cell line: HT-29. The protocol:
Equal volume of 2× RealTime-Glo™ reagent (2 μl of MT Cell Viability Substrate 1,000×, and 2 μl of NanoLuc® Enzyme 1,000×, per 1 ml of media, Promega) was added to each well and cells were incubated at 37° C. Luminescence was evaluated at 72 h.
as §1
Specifically, the Promega Real-Time-Glo cell viability kit was used to determine the optimal concentration for cell plating so that each cell line would be within the linear part of its growth curve after 72 hrs in culture. […] Test compounds are then added at different concentrations for the creation of six-point curve and cell density is determined using the Promega Real-Time-Glo cell viability kit after 24, 48, and 72 hrs in culture. […]

Series [3] is described as follows: In-vitro half-life in human liver microsomes. The format is in vitro ADME. Particulars: Human liver microsomes 0.5 mg/mL; 1 μg/mL drug; NRS; read-out: Metabolic Half-life. In a few lines:
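Compound at 1 μg/mL final was incubated with 0.5 mg/mL liver microsomes plus NADPH regenerating system at 37° C, sampled in duplicate at 0–60 min. Remaining parent was measured by LC-MS/MS, and half-life was calculated from first-order log-linear regression of % remaining versus time.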
On the technique in general: Liver microsomes are vesicles of endoplasmic reticulum, rich in cytochrome P450 enzymes.

In series [4] the test system is C57BL/6 mice with DSS colitis. Description: DSS colitis in C57BL/6 mice. The format is in vivo. Particulars: 25 mg/kg PO daily; day twelve. In a few lines:
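C57BL/6 mice (20-22 g, n=8/group) dosed with test compound or vehicle; DSS added to drinking water 24 h later, replenished every 72 h for 5 days, then regular water. Body weight recorded daily; sacrifice on day twelve for clinical score, intestinal tissue (RNA, protein, histology) and serum cytokines.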

In series [5] the test system is A-498. Kind of series: A-498 kidney cancer cell viability (Real-Time-Glo). The note with it: Homo sapiens, A498; 72 hr; read-out: IC50, Cell line: A-498. It is filed as cell-based. How it is done: To determine the plating density for cell viability assays, for each cell line, cells were counted and diluted to final densities of 2.5, 5, 10 and 20 thousand per 100 μl of their respective growth media per well in 96 well plates. A Promega Real-Time-Glo cell viability kit was used to determine the optimal concentration for cell plating so that each cell line would be within the linear part of its growth curve after 72 hrs in culture. For the determination of test compound IC50s different cancer cell lines were plated in 96 well plates in the pre-determined optimal density for each cell line. Test compounds were then added at different concentrations for the creation of six-point curve and cell density was determined using the Promega Real-Time-Glo cell viability kit after 24, 48, and 72 hrs in culture. Test compound 72 hr IC50s were calculated using the AAT Bioquest IC50 calculator.

`COc1cc2c(Nc3ccncc3)nc(N3CCC(F)(F)CC3)nc2cc1OCCCN1CCCC1` [Compound 7, 2-(4,4-difluoropiperidin-1-yl)-6-methoxy-N-(pyridin-4-yl)-7-(3-(pyrrolidin-1-yl)propoxy)quinazolin-4-amine]: the 50% inhibitory concentration (IC50) in series [1], in series [2] and in series [5] was 1000 to 5000 nM throughout. In addition, in series [3], the half-life at 1 μg/mL is greater than 1 h. The “DSS Efficacy” value in series [4] is on record as “−”.

One may read the IC50 as the concentration that gives 50% inhibition. What is called half-life is the time in which the quantity being followed falls by half.
